≈ marks a conversion by molar mass, not a printed value. Like-named read-outs stand apart in the source and are kept apart here.
Experiments:
S. aureus ATCC 29213 = assay: MIC, twofold microdilution, standard strain; type: cell-based; conditions: Staphylococcus aureus, ATCC29213; 18 h of treatment; read-out: MIC S. aureus ATCC 29213
[1] = tested on: S. epidermidis KR 4313 834/19; assay: MIC, clinical S. epidermidis strain; type: cell-based; conditions: Staphylococcus epidermidis, KR4313834/19, quinolone-susceptible, 18 h of treatment
M. tuberculosis H37Rv = assay: MABA (microplate Alamar blue assay) MIC; type: cell-based; conditions: Mycobacterium tuberculosis, 336 h, read-out: MIC M. tuberculosis H37Rv
[2] = target: T1, S. aureus topoisomerase IV (Staphylococcus aureus, UniProt P0C1S7+P0C1U9); assay: S. aureus topoisomerase IV decatenation assay; type: biochemical
T1 construct: purchased Inspiralis
Description: The assay was performed using S. aureus topoisomerase IV […] kit (Inspiralis). Kinetoplast DNA (kDNA) was the substrate for topoisomerase IV.

[3] = tested on: standard staphylococci (S. aureus, S. epidermidis); assay: MIC, standard Gram-positive strains as a group; type: cell-based; conditions: Staphylococcus aureus; range over standard Gram-positive strains; read-out: MIC against standard staphylococci
[4] = tested on: S. epidermidis ATCC 12228; assay: MIC, twofold microdilution, standard strain; type: cell-based; conditions: Staphylococcus epidermidis, ATCC12228; 18 h of treatment; read-out: MIC S. epidermidis ATCC 12228
E. coli ATCC 25922 = assay: MIC, twofold microdilution, standard strain; type: cell-based, Escherichia coli; conditions: for MIC: Escherichia coli, read-out: MIC E. coli ATCC 25922
S. aureus DNA gyrase [5] = target: T2, S. aureus DNA gyrase (Staphylococcus aureus, UniProt P0A0K8+P20831); assay: biochemical
[6] = tested on: M. tuberculosis Spec. 192 (Sensitive to Tuberculostatics); assay: MABA (microplate Alamar blue assay) MIC; type: cell-based; conditions: Mycobacterium tuberculosis, 336 h, read-out: MIC M. tuberculosis Spec. 192 (Sensitive to Tuberculostatics)
[7] = tested on: S. epidermidis KR 4358/2 840/19; assay: MIC, clinical S. epidermidis strain; type: cell-based; conditions: Staphylococcus epidermidis, KR4358/2840/19; clinical S. epidermidis, quinolone-susceptible, 18 h of treatment; read-out: MIC KR 4358/2 840/19
M. tuberculosis strains = assay: MABA MIC, mycobacterial strains as a group; type: cell-based; conditions: Mycobacterium tuberculosis, read-out: MIC antimycobacterial (strain not specified)
SW480 cells = assay: MTT assay, SW480; type: cell-based, human; conditions: for IC50: Homo sapiens, SW480, 72 h, human primary colon cancer, 72 h, MTT, mean ± SD; for SI SW480: SI = IC50 for normal cell line (HaCaT)/IC50 cancer cell line
[8] = tested on: quinolone-susceptible clinical coagulase-negative staphylococci; assay: MIC, quinolone-susceptible clinical isolates as a group; type: cell-based; conditions: Staphylococcus epidermidis, five quinolone-susceptible isolates, read-out: MIC against quinolone-susceptible clinical isolates
S. aureus ATCC 6538 = assay: MIC, twofold microdilution, standard strain; type: cell-based; conditions: Staphylococcus aureus, ATCC6538; 18 h of treatment; read-out: MIC S. aureus ATCC 6538
[9] = tested on: S. epidermidis T 5501 851/19; assay: MIC, clinical S. epidermidis strain; type: cell-based; conditions: Staphylococcus epidermidis, T5501851/19, read-out: MIC T 5501 851/19, quinolone-susceptible, 18 h of treatment
[10] = tested on: S. epidermidis ATCC 35984; assay: MIC, twofold microdilution, standard strain; type: cell-based; conditions: Staphylococcus epidermidis, ATCC35984; 18 h of treatment; read-out: MIC S. epidermidis ATCC 35984
S. aureus NCTC 4163 = assay: MIC, twofold microdilution, standard strain; type: cell-based; conditions: Staphylococcus aureus, NCTC4163; 18 h of treatment; read-out: MIC S. aureus NCTC 4163
[11] = tested on: S. epidermidis T 5253 845/19; assay: MIC, clinical S. epidermidis strain; type: cell-based; conditions: Staphylococcus epidermidis, T5253845/19, quinolone-resistant, 18 h of treatment
S. aureus ATCC 25923 = assay: MIC, twofold microdilution, standard strain; type: cell-based; conditions: Staphylococcus aureus, ATCC25923; 18 h of treatment; read-out: MIC S. aureus ATCC 25923
P. aeruginosa ATCC 27853 = assay: MIC, twofold microdilution, standard strain; type: cell-based; conditions: Pseudomonas aeruginosa, ATCC27853; 18 h of treatment; read-out: MIC P. aeruginosa ATCC 27853
[12] = tested on: S. epidermidis T 5399 848/19; assay: MIC, clinical S. epidermidis strain; type: cell-based; conditions: Staphylococcus epidermidis, T5399848/19, quinolone-susceptible, 18 h of treatment
[13] = tested on: S. epidermidis KR 4243 829/19; assay: MIC, clinical S. epidermidis strain; type: cell-based; conditions: Staphylococcus epidermidis, KR4243829/19, quinolone-susceptible, 18 h of treatment
PC3 cells = assay: MTT assay, PC3; type: cell-based, human; conditions: for IC50: human metastatic prostate cancer, 72 h, MTT, mean ± SD; for SI PC3: SI = IC50 for normal cell line (HaCaT)/IC50 cancer cell line
HaCaT cells = assay: MTT assay, HaCaT normal cells; type: cell-based; conditions: human immortal keratinocyte cell line, 72 h, mean ± SD
[14] = tested on: S. epidermidis KR 4047 825/19; assay: MIC, clinical S. epidermidis strain; type: cell-based; conditions: Staphylococcus epidermidis, KR4047825/19, quinolone-resistant, 18 h of treatment
SW620 cells = assay: MTT assay, SW620; type: cell-based, human; conditions: for IC50: Homo sapiens, SW-620, 72 h, human metastatic colon cancer, 72 h, MTT, mean ± SD; for SI SW620: SI = IC50 for normal cell line (HaCaT)/IC50 cancer cell line
S. aureus DNA gyrase [15] = target: T2, S. aureus DNA gyrase; conditions: read-out: IC50 for Gyrase; inhibition of DNA supercoiling, 30 min at 37 °C
[16] = tested on: quinolone-resistant isolates (KR 4047 and T5253); assay: MIC, quinolone-resistant clinical isolates as a group; type: cell-based; conditions: Staphylococcus epidermidis, read-out: MIC against quinolone-resistant clinical isolates
[17] = tested on: SW480, SW620, and PC3 cancer cell lines; assay: MTT assay, cancer cell lines as a group; type: cell-based, human; conditions: Homo sapiens, 72 h, all three cancer cell lines (SW480, SW620, PC3), read-out: IC50 against all tested cancer cell lines

T2 sequence (P20831 whole entry): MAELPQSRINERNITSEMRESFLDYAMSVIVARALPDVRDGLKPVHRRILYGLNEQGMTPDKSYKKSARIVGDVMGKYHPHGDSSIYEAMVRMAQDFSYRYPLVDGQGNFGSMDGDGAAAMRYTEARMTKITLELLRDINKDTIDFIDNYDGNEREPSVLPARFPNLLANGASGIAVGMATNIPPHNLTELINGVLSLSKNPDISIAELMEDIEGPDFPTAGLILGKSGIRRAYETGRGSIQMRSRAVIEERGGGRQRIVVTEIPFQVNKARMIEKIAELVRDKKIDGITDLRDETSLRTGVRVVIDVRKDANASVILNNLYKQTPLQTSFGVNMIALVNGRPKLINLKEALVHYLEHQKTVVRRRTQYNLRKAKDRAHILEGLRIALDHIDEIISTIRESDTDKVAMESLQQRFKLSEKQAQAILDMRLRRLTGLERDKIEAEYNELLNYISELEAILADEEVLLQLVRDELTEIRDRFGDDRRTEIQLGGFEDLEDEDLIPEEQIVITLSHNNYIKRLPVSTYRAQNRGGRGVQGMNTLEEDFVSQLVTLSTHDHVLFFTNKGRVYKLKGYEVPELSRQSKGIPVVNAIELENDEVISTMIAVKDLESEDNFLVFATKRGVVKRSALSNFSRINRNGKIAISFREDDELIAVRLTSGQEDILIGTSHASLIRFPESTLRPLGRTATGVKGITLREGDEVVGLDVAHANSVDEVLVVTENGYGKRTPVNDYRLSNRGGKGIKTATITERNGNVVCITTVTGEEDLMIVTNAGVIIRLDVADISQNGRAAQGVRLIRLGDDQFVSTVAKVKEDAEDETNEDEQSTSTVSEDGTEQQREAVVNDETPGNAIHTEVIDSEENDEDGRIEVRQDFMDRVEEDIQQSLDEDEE
T2 sequence (P0A0K8 whole entry): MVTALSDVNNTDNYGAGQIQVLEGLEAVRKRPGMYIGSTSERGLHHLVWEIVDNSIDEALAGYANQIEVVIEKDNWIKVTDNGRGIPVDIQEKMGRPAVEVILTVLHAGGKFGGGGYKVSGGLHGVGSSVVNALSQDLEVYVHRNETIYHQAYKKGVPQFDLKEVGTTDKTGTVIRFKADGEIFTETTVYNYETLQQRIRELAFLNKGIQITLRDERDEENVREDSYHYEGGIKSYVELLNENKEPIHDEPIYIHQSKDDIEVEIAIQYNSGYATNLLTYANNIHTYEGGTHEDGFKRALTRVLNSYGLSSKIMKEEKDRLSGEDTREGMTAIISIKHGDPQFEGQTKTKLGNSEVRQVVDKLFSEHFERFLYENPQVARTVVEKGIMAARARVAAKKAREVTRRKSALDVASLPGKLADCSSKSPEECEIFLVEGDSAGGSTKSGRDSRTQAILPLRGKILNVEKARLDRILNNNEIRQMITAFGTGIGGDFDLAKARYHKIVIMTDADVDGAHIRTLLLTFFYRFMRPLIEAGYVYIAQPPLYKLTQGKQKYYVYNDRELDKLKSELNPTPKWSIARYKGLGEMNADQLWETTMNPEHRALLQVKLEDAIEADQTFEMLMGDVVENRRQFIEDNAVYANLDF
T1 sequence (P0C1U9 whole entry): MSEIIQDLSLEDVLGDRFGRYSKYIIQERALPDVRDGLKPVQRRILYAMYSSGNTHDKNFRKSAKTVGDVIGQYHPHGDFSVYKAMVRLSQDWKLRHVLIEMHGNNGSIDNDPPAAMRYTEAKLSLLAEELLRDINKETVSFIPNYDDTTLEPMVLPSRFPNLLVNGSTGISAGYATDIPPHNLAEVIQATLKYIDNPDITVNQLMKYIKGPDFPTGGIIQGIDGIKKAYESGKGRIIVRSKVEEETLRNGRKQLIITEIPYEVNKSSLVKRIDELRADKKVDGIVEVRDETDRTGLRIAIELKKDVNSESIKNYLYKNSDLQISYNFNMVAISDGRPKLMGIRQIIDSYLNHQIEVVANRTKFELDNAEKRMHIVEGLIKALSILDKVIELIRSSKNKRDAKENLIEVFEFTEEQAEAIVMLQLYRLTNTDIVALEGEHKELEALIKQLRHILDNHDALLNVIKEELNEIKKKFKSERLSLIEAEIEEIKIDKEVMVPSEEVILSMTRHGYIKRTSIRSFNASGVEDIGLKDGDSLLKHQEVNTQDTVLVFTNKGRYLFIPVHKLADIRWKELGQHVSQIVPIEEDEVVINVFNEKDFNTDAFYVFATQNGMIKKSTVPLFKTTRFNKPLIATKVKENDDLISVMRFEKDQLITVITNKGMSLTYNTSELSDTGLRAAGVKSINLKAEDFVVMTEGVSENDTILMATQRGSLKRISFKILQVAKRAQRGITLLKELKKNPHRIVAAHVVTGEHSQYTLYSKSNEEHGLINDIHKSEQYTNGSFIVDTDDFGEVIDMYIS
T1 sequence (P0C1S7 whole entry): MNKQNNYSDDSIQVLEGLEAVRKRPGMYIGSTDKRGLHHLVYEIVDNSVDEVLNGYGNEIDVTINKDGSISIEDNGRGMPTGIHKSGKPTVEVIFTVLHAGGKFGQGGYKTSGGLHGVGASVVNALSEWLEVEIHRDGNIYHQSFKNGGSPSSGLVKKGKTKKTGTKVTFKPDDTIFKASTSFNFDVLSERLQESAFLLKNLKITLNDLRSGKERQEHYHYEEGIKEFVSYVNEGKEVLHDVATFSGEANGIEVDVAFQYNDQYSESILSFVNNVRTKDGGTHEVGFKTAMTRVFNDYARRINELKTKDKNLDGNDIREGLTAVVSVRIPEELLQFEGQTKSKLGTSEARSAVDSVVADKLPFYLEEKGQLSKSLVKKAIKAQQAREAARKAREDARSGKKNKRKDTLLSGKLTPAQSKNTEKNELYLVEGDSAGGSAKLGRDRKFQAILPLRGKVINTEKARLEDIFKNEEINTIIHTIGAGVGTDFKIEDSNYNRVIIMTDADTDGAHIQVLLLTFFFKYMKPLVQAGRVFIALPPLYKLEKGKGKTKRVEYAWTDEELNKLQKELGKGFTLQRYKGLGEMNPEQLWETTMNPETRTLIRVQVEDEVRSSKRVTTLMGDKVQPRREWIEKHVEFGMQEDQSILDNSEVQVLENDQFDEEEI

Compound | MIC (S. aureus ATCC 29213) | MIC [1] | MIC [3] | MIC [4] | MIC [7] | IC50 (SW480 cells) | SI SW480 (SW480 cells) | MIC (S. aureus ATCC 6538) | MIC [9] | MIC [10] | MIC (S. aureus NCTC 4163) | MIC [11] | MIC (S. aureus ATCC 25923) | MIC (P. aeruginosa ATCC 27853) | MIC [12] | MIC [13] | IC50 (PC3 cells; Homo sapiens, PC-3, 72 h) | SI PC3 (PC3 cells) | IC50 (HaCaT cells) | MIC [14] | also measured
C/C=C/C(=O)N1CCCC2CN(c3c(F)cc4c(=O)c(C(=O)O)cn(C5CC5)c4c3OC)CC21 (stereo not shown) [Compound 1m, 7-{1-(E)-But-2-enoyl-octahydro-pyrrolo[3,4-b]pyridin-6-yl}-1-cyclopropyl-6-fluoro-8-methoxy-4-oxo-1,4-dihydro-quinoline-3-carboxylic acid] | 0.5 µg/mL (≈ 1.06 µM) | 1 µg/mL (≈ 2.13 µM) | 0.5 to 2 µg/mL (≈ 1.06 to 4.26 µM) | 1 µg/mL (≈ 2.13 µM) | 1 µg/mL (≈ 2.13 µM) | 31.6 ± 4.7 µM | 2.0 | 0.5 µg/mL (≈ 1.06 µM) | 1 µg/mL (≈ 2.13 µM) | 0.5 µg/mL (≈ 1.06 µM) | 0.5 µg/mL (≈ 1.06 µM) | 64 µg/mL (≈ 136 µM) | 0.5 µg/mL (≈ 1.06 µM) | > 512 µg/mL | 1 µg/mL (≈ 2.13 µM) | 0.5 µg/mL (≈ 1.06 µM) | 23.8 ± 3.4 µM | 2.7 | 64.1 ± 2.3 µM | 32 µg/mL (≈ 68.2 µM) | MIC (M. tuberculosis H37Rv): 64 µg/mL (≈ 136 µM); IC50 [2]: 130 µM; MIC E. coli ATCC 25922 (E. coli ATCC 25922; 18 h of treatment): 2 to 16 µg/mL; MIC (E. coli ATCC 25922; ATCC25922, 18 h of treatment): 16 µg/mL (≈ 34.1 µM); IC50 (S. aureus DNA gyrase [5]): > 136 µM; MIC [6]: 64 µg/mL (≈ 136 µM); MIC (M. tuberculosis strains): 64 µg/mL (≈ 136 µM); MIC ([8]; 18 h): 0.5 to 1 µg/mL (≈ 1.06 to 2.13 µM); IC50 (SW620 cells): 24.8 ± 3.2 µM; SI SW620 (SW620 cells): 2.6
CCC=CCC=CCC=CCC=CCC=CCC=CCCC(=O)N1CCN(c2cc3c(cc2F)c(=O)c(C(=O)O)cn3C2CC2)CC1 [Compound 8] |  |  |  |  |  |  |  |  |  |  |  |  |  |  |  |  |  |  |  |  | IC50 ([2]; read-out: IC50 for Topo IV, inhibition of kDNA decatenation, 30 min at 37 °C): > 99.7 µM; IC50 (S. aureus DNA gyrase [15]): > 99.7 µM
COc1c(N2CC3CCCN(C(C)=O)C3C2)c(F)cc2c(=O)c(C(=O)O)cn(C3CC3)c12 (stereo not shown) [Compound 14m, 7-(1-Acetyl-octahydro-pyrrolo[3,4-b]pyridin-6-yl)-1-cyclopropyl-6-fluoro-8-methoxy-4-oxo-1,4-dihydro-quinoline-3-carboxylic acid] | 0.5 µg/mL (≈ 1.13 µM) | 0.5 µg/mL (≈ 1.13 µM) | 0.25 to 1 µg/mL (≈ 0.564 to 2.25 µM) | 0.5 µg/mL (≈ 1.13 µM) | 0.5 µg/mL (≈ 1.13 µM) | 14.3 ± 3.2 µM | 6.0 | 0.25 µg/mL (≈ 0.564 µM) | 0.5 µg/mL (≈ 1.13 µM) | 0.5 µg/mL (≈ 1.13 µM) | 0.25 µg/mL (≈ 0.564 µM) | 32 µg/mL (≈ 72.2 µM) | 0.25 µg/mL (≈ 0.564 µM) | > 512 µg/mL | 0.5 µg/mL (≈ 1.13 µM) | 0.5 µg/mL (≈ 1.13 µM) | 12.5 ± 1.6 µM | 6.9 | 86.5 ± 2.1 µM | 32 µg/mL (≈ 72.2 µM) | MIC (M. tuberculosis H37Rv; 2 weeks of treatment): 64 µg/mL (≈ 144 µM); IC50 [2]: 135 µM; MIC E. coli ATCC 25922 (E. coli ATCC 25922; 18 h of treatment): 2 to 16 µg/mL; MIC (E. coli ATCC 25922; ATCC25922, 18 h of treatment): 8 µg/mL (≈ 18 µM); IC50 (S. aureus DNA gyrase [5]): 133 µM; MIC ([6]; 2 weeks of treatment): 64 µg/mL (≈ 144 µM); MIC (M. tuberculosis strains; summary over strains): 64 µg/mL (≈ 144 µM); MIC [8]: 0.5 µg/mL (≈ 1.13 µM); IC50 (SW620 cells): 18.4 ± 3.2 µM; SI SW620 (SW620 cells): 4.7
CCCCCCCC(=O)N1CCCC2CN(c3c(F)cc4c(=O)c(C(=O)O)cn(C5CC5)c4c3OC)CC21 (stereo not shown) [Compound 15m, 1-Cyclopropyl-6-fluoro-8-methoxy-7-(1-octanoyl-octahydro-pyrrolo[3,4-b]pyridin-6-yl)-4-oxo-1,4-dihydro-quinoline-3-carboxylic acid] | 4 µg/mL (≈ 7.58 µM) | 8 µg/mL (≈ 15.2 µM) | 4 to 8 µg/mL (≈ 7.58 to 15.2 µM) | 4 µg/mL (≈ 7.58 µM) | 8 µg/mL (≈ 15.2 µM) | 3.2 ± 0.8 µM | 27.3 | 4 µg/mL (≈ 7.58 µM) | 8 µg/mL (≈ 15.2 µM) | 8 µg/mL (≈ 15.2 µM) | 4 µg/mL (≈ 7.58 µM) | 8 µg/mL (≈ 15.2 µM) | 4 µg/mL (≈ 7.58 µM) | 512 µg/mL (≈ 970 µM) | 4 µg/mL (≈ 7.58 µM) | 8 µg/mL (≈ 15.2 µM) | < 5 µM | 28.1 | 87.2 ± 3.6 µM | 8 µg/mL (≈ 15.2 µM) | MIC (M. tuberculosis H37Rv; 2 weeks of treatment): 256 µg/mL (≈ 485 µM); MIC (E. coli ATCC 25922; ATCC25922, 18 h): 128 µg/mL (≈ 243 µM); MIC [6]: 128 µg/mL (≈ 243 µM); MIC (M. tuberculosis strains): ≥ 128 µg/mL; MIC [16]: 8 µg/mL (≈ 15.2 µM); IC50 (PC3 cells): 3.1 ± 0.9 µM; IC50 (SW620 cells): 4.7 ± 1.5 µM; SI SW620 (SW620 cells): 18.6; IC50 [17]: < 5 µM

From paper PMC9181188 (International Journal of Molecular Sciences, 2022)
